# Laboratory results as given in patent US11432549B2, “Carbamoyl triazolinone based herbicide combinations and method of use” (Arysta LifeScience Corporation, priority 2009, dated 2022).
# Tests used:
# [1] = tested on: Poa annua; test: Ex 5/7 greenhouse spray, bleaching/injury ratings; assay type: in vivo
# Description: (§1) Containers were watered as needed based on species and water usage. The greenhouse was heated to keep temperatures above 50° F. (10° C.) and ventilated as needed to keep temperatures below 100° F. (38° C.). Typical daytime temperatures in the greenhouse were 80-90° F. (27-32° C.) and nighttime temperatures were between 50-60° F. (10-16° C.). The soil employed was Promix BX potting soil. Overall moisture conditions were normal and the closest weather station was on-site. Conditions and equipment employed in this Example are tabulated below in Tables 5-1 and 5-2.
# (§2) All containers were moved outdoors from the greenhouse and arranged in blocks by treatment for the herbicide applications. A single spray application was applied to each block containing four repetitions of each species for each treatment. Plants were then immediately returned to the greenhouse and irrigated with approximately ¼″ water 1-3 hrs after treatment with a hose end sprayer. Only the Poa plants were trimmed with scissors two days prior to treatment at a height of approximately 3 inches.
# Transplanted tillering Kentucky Bluegrass was 5 to 6 months old, transplanted Poa annua was 5 to 6 months old. Tall fescue was seeded into the crabgrass pots. St. Augustine plants (Floratam and Saphire) were shipped from Port St. Lucie, Fla. Only two replicates of Saphire St. Augustine grass were used due to plant availability.
# Referring to FIGS. 2A-B, 3A-C, 4A-C, and 5A-D, all ratings of injury or bleaching are based on a scale from 1 to 9. […] Any bleaching measurement 4 and above was considered unacceptable for desirable turf species. In injury measurements, 1 indicates no injury while 9 indicates a dead plant. Any injury measurement 4 and above was considered unacceptable for desirable turf species). Density correlates with percent cover where 1 indicates no grass while 9 indicates a full pot.
# Replications employed include 4, Untreated treatments: 1, Design: Randomized Complete Block, Treatment units: US standard, Treated plot size Width: 4 feet, Treated plot size Length: 4 feet, Application volume: 50 gal/ac, Mix size: 0.5562 liters, Mix overage: 100%, Format definitions: G-All7.DEF, G-All7.FRM.
# In evaluating synergism, the data from Example 5 above were converted to % of control. This was done based on the data provided on a 1-9 scale detailed in Example 5. Expected values were computed from the % of control data by the formula for expected control=[…], where A is the % of control value for herbicide A alone and B is the % of control value for herbicide B alone.
# [2] = tested on: Euphorbia heterophylla (EPHHL); test: Ex 4 pre-emergence, visual % damage; assay type: in vivo
# Description: (§3) DINAMIC® (amicarbazone) in combination of various herbicides listed in Table 4-1 were tested for herbicidal activity.
# The herbicidal effect was observed by comparing the extent of Euphorbia heterophylla (EPHHL) treated with the compounds against that occurring in similar non-treated control. Herbicidal effect was visually assessed and recorded at 14, 23, 36, 49, 65 and 77 days after treatment (DAT). Damage by the herbicidal compositions was evaluated with reference to a scale of 0% to 100% in comparison with untreated control. 0% means no damage and 100% means complete destruction of the plants.
# The theoretical herbicidal effect index were calculated based on Colby and the values were indicated in bracket ( ) in Table 4-2. Both of the herbicidal mixtures (amicarbazone+Karmex) and (amicarbazone+Sencor) exert a greater herbicidal action than expected according to Colby on the basis of the observed effects of the individual components when used alone. […] The underlined values in the table indicate that the observed weed killing is greater than calculated from the Colby formula and therefore indicates a synergistic weed killing effect or activity.
# [3] = tested on: Digitaria ciliaris; test: Ex 1 pot test, visual % damage; assay type: in vivo
# [4] = tested on: Ipomoea gradifolia (IAOGR); test: Ex 4 pre-emergence, visual % damage; assay type: in vivo; conditions: kg/ha or L/ha: Amicarbazone 1.50, Gesapax 5.00, Karmex 5.00, Provence 0.20, Sencor 3.50, alone
# Description: as §3
# The herbicidal effect was observed by comparing the extent of Ipomoea gradifolia (IAOGR) treated with the compounds against that occurring in similar non-treated control. Herbicidal effect was visually assessed and recorded at 14, 23, 36, 49, 65 and 77 days after treatment (DAT). Damage by the herbicidal compositions was evaluated with reference to a scale of 0% to 100% in comparison with untreated control. 0% means no damage and 100% means complete destruction of the plants. […] The theoretical herbicidal effect index were calculated based on Colby and the values were indicated in bracket ( ). […] Some of the observed herbicidal effects were the same as the theoretical hervicidal effects, which indicate additive effects. The underlined values in the table indicate that the observed weed killing is greater than calculated from the Colby formula and therefore indicates a synergistic weed killing effect or activity.
# [5] = tested on: Kentucky Bluegrass Seedling; conditions: in vivo
# Description: as §1, §2
# […] Tall fescue was seeded into the crabgrass pots. St. Augustine plants (Floratam and Saphire) were shipped from Port St. Lucie, Fla. Only two replicates of Saphire St. Augustine grass were used due to plant availability.
# Referring to FIGS. 2A-B, 3A-C, 4A-C, and 5A-D, all ratings of injury or bleaching are based on a scale from 1 to 9. […]
# [6] = rating 1, 0.022 lbs ai/A (0.5 oz/A)
# [7] = rating 1, 0.13 lbs ai/A (3 oz/A)
# [8] = rating 2, 0.022 lbs ai/A (0.5 oz/A)
# [9] = rating 2, 0.13 lbs ai/A (3 oz/A)
# [10] = rating 3, 0.022 lbs ai/A (0.5 oz/A)
# [11] = rating 3, 0.13 lbs ai/A (3 oz/A)
# [12] = rating 4, 0.022 lbs ai/A (0.5 oz/A)
# [13] = rating 4, 0.13 lbs ai/A (3 oz/A)
smiles,measurement,setting,value
"CC(C)c1nn(C(=O)NC(C)(C)C)c(=O)n1N [Amicarbazone, 4-amino-5-isopropyl-2-(tert-butyl-aminocarbonyl)-2,4-dihydro-3H-1,2,4-triazol-3-one]",control of annual bluegrass,"[1]; high rate, by itself",reasonable control
same,Annual bluegrass bleaching,[1]; [6],100 % of control
same,Annual bluegrass injury,[1]; [6],104 % of control
same,Annual bluegrass bleaching,[1]; [7],100 % of control
same,Annual bluegrass injury,[1]; [7],71 % of control
same,Annual bluegrass bleaching,[1]; [8],100 % of control
same,Annual bluegrass injury,[1]; [8],104 % of control
same,Annual bluegrass bleaching,[1]; [9],100 % of control
same,Annual bluegrass injury,[1]; [9],61 % of control
same,Annual bluegrass bleaching,[1]; [10],100 % of control
same,Annual bluegrass injury,[1]; [10],108 % of control
same,Annual bluegrass bleaching,[1]; [11],91 % of control
same,Annual bluegrass injury,[1]; [11],67 % of control
same,Annual bluegrass bleaching,"[1]; rating 4/2, 0.022 lbs ai/A (0.5 oz/A)",100 % of control
same,Annual bluegrass bleaching,"[1]; rating 4/2, 0.13 lbs ai/A (3 oz/A)",88 % of control
same,Annual bluegrass bleaching,[1]; [12],107 % of control
same,Annual bluegrass injury,[1]; [12],96 % of control
same,Annual bluegrass bleaching,[1]; [13],94 % of control
same,Annual bluegrass injury,[1]; [13],53 % of control
same,Annual bluegrass injury,"[1]; rating 5, 0.022 lbs ai/A (0.5 oz/A)",90 % of control
same,Annual bluegrass injury,"[1]; rating 5, 0.13 lbs ai/A (3 oz/A)",52 % of control
same,Annual bluegrass injury,"[1]; rating 6, 0.022 lbs ai/A (0.5 oz/A)",85 % of control
same,Annual bluegrass injury,"[1]; rating 6, 0.13 lbs ai/A (3 oz/A)",31 % of control
same,Annual bluegrass injury,"[1]; rating 7, 0.022 lbs ai/A (0.5 oz/A)",85 % of control
same,Annual bluegrass injury,"[1]; rating 7, 0.13 lbs ai/A (3 oz/A)",24 % of control
same,percentage control,"[2]; 14 DAT, kg/ha or L/ha: Amicarbazone 1.00, Gesapax 3.00, Karmex 3.00, Provence 0.15, Sencor 2.00, alone or Amicarbazone + partner",96%
same,percentage control,"[2]; 14 DAT, kg/ha or L/ha: Amicarbazone 1.50, Gesapax 5.00, Karmex 5.00, Provence 0.20, Sencor 3.50, alone",98%
same,percentage control,"[2]; 23 DAT, kg/ha or L/ha: Amicarbazone 1.00, Gesapax 3.00, Karmex 3.00, Provence 0.15, Sencor 2.00, alone or Amicarbazone + partner",96%
same,percentage control,"[2]; 23 DAT, kg/ha or L/ha: Amicarbazone 1.50, Gesapax 5.00, Karmex 5.00, Provence 0.20, Sencor 3.50, alone",98%
same,percentage control,"[2]; 36 DAT, kg/ha or L/ha: Amicarbazone 1.00, Gesapax 3.00, Karmex 3.00, Provence 0.15, Sencor 2.00, alone or Amicarbazone + partner",96%
same,percentage control,"[2]; 36 DAT, kg/ha or L/ha: Amicarbazone 1.50, Gesapax 5.00, Karmex 5.00, Provence 0.20, Sencor 3.50, alone",96%
same,percentage control,"[2]; 49 DAT, kg/ha or L/ha: Amicarbazone 1.00, Gesapax 3.00, Karmex 3.00, Provence 0.15, Sencor 2.00, alone or Amicarbazone + partner",79%
same,percentage control,"[2]; 49 DAT, kg/ha or L/ha: Amicarbazone 1.50, Gesapax 5.00, Karmex 5.00, Provence 0.20, Sencor 3.50, alone",96%
same,percentage control,"[2]; 65 DAT, kg/ha or L/ha: Amicarbazone 1.00, Gesapax 3.00, Karmex 3.00, Provence 0.15, Sencor 2.00, alone or Amicarbazone + partner",79%
same,percentage control,"[2]; 65 DAT, kg/ha or L/ha: Amicarbazone 1.50, Gesapax 5.00, Karmex 5.00, Provence 0.20, Sencor 3.50, alone",96%
same,percentage control,"[2]; 77 DAT, kg/ha or L/ha: Amicarbazone 1.00, Gesapax 3.00, Karmex 3.00, Provence 0.15, Sencor 2.00, alone or Amicarbazone + partner",75%
same,percentage control,"[2]; 77 DAT, kg/ha or L/ha: Amicarbazone 1.50, Gesapax 5.00, Karmex 5.00, Provence 0.20, Sencor 3.50, alone",90%
same,herbicide effect,"[3]; 50 g/ha and 100 g/ha, one-leaf stage",small
same,percentage control,"[3]; single application 50 g/ha, 5 DAT",24%
same,percentage control,"[3]; single application 50 g/ha, 8 DAT",38%
same,percentage control,"[3]; single application 50 g/ha, 14 DAT",34%
same,percentage control,"[3]; single application 50 g/ha, 21 DAT",34%
same,percentage control,"[3]; single application 50 g/ha, 28 DAT",26%
same,percentage control,"[3]; single application 100 g/ha, 5 DAT",70%
same,percentage control,"[3]; single application 100 g/ha, 8 DAT",78%
same,percentage control,"[3]; single application 100 g/ha, 14 DAT",82%
same,percentage control,"[3]; single application 100 g/ha, 21 DAT",74%
same,percentage control,"[3]; single application 100 g/ha, 28 DAT",66%
same,percentage control,"[3]; single application 200 g/ha, 5 DAT",92%
same,percentage control,"[3]; single application 200 g/ha, 8 DAT",96%
same,percentage control,"[3]; single application 200 g/ha, 14 DAT",98%
same,percentage control,"[3]; single application 200 g/ha, 21 DAT",86%
same,percentage control,"[3]; single application 200 g/ha, 28 DAT",86%
same,percentage control,[4]; 14 DAT,98%
same,percentage control,[4]; 23 DAT,98%
same,percentage control,[4]; 36 DAT,98%
same,percentage control,[4]; 49 DAT,98%
same,percentage control,[4]; 65 DAT,96%
same,percentage control,[4]; 77 DAT,97%
same,injury to seedlings,[5],injured Kentucky Bluegrass seedlings
